Species: Rattus norvegicus
Assay: DrugMatrix - Regimen: Daily Repeat
Assay type: toxicity, organism-based, Sprague-Dawley
Set-up: regimen Daily Repeat, gender Male, age 6-8 weeks
Settings: in vivo, po, route oral GAVAGE, vehicle 100 % WATER; for ABSOLUTE BASOPHIL / ABSOLUTE EOSINOPHIL / ABSOLUTE LYMPHOCYTE / ABSOLUTE MONOCYTE / ABSOLUTE SEGMENTED NEUTROPHIL / BASOPHIL / EOSINOPHIL / ERYTHROCYTE COUNT / HEMATOCRIT / HEMOGLOBIN / LEUKOCYTE COUNT / LYMPHOCYTE / MEAN CORPUSCULAR HEMOGLOBIN / MEAN CORPUSCULAR HEMOGLOBIN CONCENTRATION / MEAN CORPUSCULAR VOLUME / MONOCYTE / NEUTROPHIL / NUCLEATED RED BLOOD CELLS / PLATELET COUNT: tissue Blood; for ALANINE AMINOTRANSFERASE / ALBUMIN / ALKALINE PHOSPHATASE / ASPARTATE AMINOTRANSFERASE / BLOOD UREA NITROGEN / CARBON DIOXIDE / CHLORIDE / CHOLESTEROL / CREATINE PHOSPHOKINASE / CREATININE / GLUCOSE / LACTATE DEHYDROGENASE / LIPASE / PHOSPHORUS / POTASSIUM / SODIUM / TOTAL BILIRUBIN / TOTAL PROTEIN / URIC ACID: tissue Plasma
[1] = 20 mg/kg, 120 h, dose level Low, time 5 day
[2] = 70 mg/kg, 72 h, dose level High, time 3 day
[3] = 70 mg/kg, 120 h, dose level High, time 5 day

CCCC(C)C1(CC)C(=O)NC(=O)NC1=O (centres undefined) [PENTOBARBITAL]
ABSOLUTE BASOPHIL [1]: 0 CELLS/uL
ABSOLUTE EOSINOPHIL [1]: 0 CELLS/uL
ABSOLUTE LYMPHOCYTE [1]: 9855 CELLS/uL
ABSOLUTE MONOCYTE [1]: 58 CELLS/uL
ABSOLUTE SEGMENTED NEUTROPHIL [1]: 1187 CELLS/uL
BASOPHIL [1]: 0%
EOSINOPHIL [1]: 0%
ERYTHROCYTE COUNT [1]: 5.44 x10E6/uL
HEMATOCRIT [1]: 34.1%
HEMOGLOBIN [1]: 13.23 G/DL
LEUKOCYTE COUNT [1]: 11.1 x10E3/uL
LYMPHOCYTE [1]: 89%
MEAN CORPUSCULAR HEMOGLOBIN [1]: 24.33 pg
MEAN CORPUSCULAR HEMOGLOBIN CONCENTRATION [1]: 38.83 G/DL
MEAN CORPUSCULAR VOLUME [1]: 62.67 fL
MONOCYTE [1]: 0.67%
NEUTROPHIL [1]: 10.33%
NUCLEATED RED BLOOD CELLS [1]: 0 /100WBC
PLATELET COUNT [1]: 1231.67 x10E3/uL
ALANINE AMINOTRANSFERASE [1]: 60.33 u/L
ALBUMIN [1]: 3.8 G/DL
ALKALINE PHOSPHATASE [1]: 346 u/L
ASPARTATE AMINOTRANSFERASE [1]: 88.33 u/L
BLOOD UREA NITROGEN [1]: 17 mg/dL
CARBON DIOXIDE [1]: 32.67 mmol/L
CHLORIDE [1]: 99.33 MEQ/L
CHOLESTEROL [1]: 71.67 mg/dL
CREATINE PHOSPHOKINASE [1]: 344.67 u/L
CREATININE [1]: 0.19 mg/dL
GLUCOSE [1]: 155 mg/dL
LACTATE DEHYDROGENASE [1]: 163 u/L
LIPASE [1]: 8.67 u/L
PHOSPHORUS [1]: 11.17 mg/dL
POTASSIUM [1]: 5.63 MEQ/L
SODIUM [1]: 145.17 MEQ/L
TOTAL BILIRUBIN [1]: 0.17 mg/dL
TOTAL PROTEIN [1]: 5.63 G/DL
URIC ACID [1]: 0.67 mg/dL
ABSOLUTE BASOPHIL [2]: 0 CELLS/uL
ABSOLUTE EOSINOPHIL [2]: 29 CELLS/uL
ABSOLUTE LYMPHOCYTE [2]: 9707 CELLS/uL
ABSOLUTE MONOCYTE [2]: 106.67 CELLS/uL
ABSOLUTE SEGMENTED NEUTROPHIL [2]: 824 CELLS/uL
BASOPHIL [2]: 0%
EOSINOPHIL [2]: 0.33%
ERYTHROCYTE COUNT [2]: 5.46 x10E6/uL
HEMATOCRIT [2]: 34.73%
HEMOGLOBIN [2]: 13.4 G/DL
LEUKOCYTE COUNT [2]: 10.67 x10E3/uL
LYMPHOCYTE [2]: 91%
MEAN CORPUSCULAR HEMOGLOBIN [2]: 24.57 pg
MEAN CORPUSCULAR HEMOGLOBIN CONCENTRATION [2]: 38.63 G/DL
MEAN CORPUSCULAR VOLUME [2]: 63.53 fL
MONOCYTE [2]: 1%
NEUTROPHIL [2]: 7.67%
NUCLEATED RED BLOOD CELLS [2]: 0 /100WBC
PLATELET COUNT [2]: 792 x10E3/uL
ALANINE AMINOTRANSFERASE [2]: 58 u/L
ALBUMIN [2]: 4.2 G/DL
ALKALINE PHOSPHATASE [2]: 300.33 u/L
ASPARTATE AMINOTRANSFERASE [2]: 75.67 u/L
BLOOD UREA NITROGEN [2]: 13 mg/dL
CARBON DIOXIDE [2]: 34.67 mmol/L
CHLORIDE [2]: 101.33 MEQ/L
CHOLESTEROL [2]: 81.33 mg/dL
CREATINE PHOSPHOKINASE [2]: 230 u/L
CREATININE [2]: 0.16 mg/dL
GLUCOSE [2]: 139 mg/dL
LACTATE DEHYDROGENASE [2]: 113.33 u/L
LIPASE [2]: 9 u/L
PHOSPHORUS [2]: 11.77 mg/dL
POTASSIUM [2]: 6.23 MEQ/L
SODIUM [2]: 146.57 MEQ/L
TOTAL BILIRUBIN [2]: 0.2 mg/dL
TOTAL PROTEIN [2]: 6.17 G/DL
URIC ACID [2]: 0.73 mg/dL
ABSOLUTE BASOPHIL [3]: 0 CELLS/uL
ABSOLUTE EOSINOPHIL [3]: 23.33 CELLS/uL
ABSOLUTE LYMPHOCYTE [3]: 7811.33 CELLS/uL
ABSOLUTE MONOCYTE [3]: 0 CELLS/uL
ABSOLUTE SEGMENTED NEUTROPHIL [3]: 598.67 CELLS/uL
BASOPHIL [3]: 0%
EOSINOPHIL [3]: 0.33%
ERYTHROCYTE COUNT [3]: 5.7 x10E6/uL
HEMATOCRIT [3]: 36%
HEMOGLOBIN [3]: 13.73 G/DL
LEUKOCYTE COUNT [3]: 8.43 x10E3/uL
LYMPHOCYTE [3]: 92.33%
MEAN CORPUSCULAR HEMOGLOBIN [3]: 24.1 pg
MEAN CORPUSCULAR HEMOGLOBIN CONCENTRATION [3]: 38.17 G/DL
MEAN CORPUSCULAR VOLUME [3]: 63.17 fL
MONOCYTE [3]: 0%
NEUTROPHIL [3]: 7.33%
NUCLEATED RED BLOOD CELLS [3]: 0 /100WBC
PLATELET COUNT [3]: 1184.67 x10E3/uL
ALANINE AMINOTRANSFERASE [3]: 60 u/L
ALBUMIN [3]: 4.2 G/DL
ALKALINE PHOSPHATASE [3]: 346 u/L
ASPARTATE AMINOTRANSFERASE [3]: 81 u/L
BLOOD UREA NITROGEN [3]: 14 mg/dL
CARBON DIOXIDE [3]: 33 mmol/L
CHLORIDE [3]: 99 MEQ/L
CHOLESTEROL [3]: 74.33 mg/dL
CREATINE PHOSPHOKINASE [3]: 461.33 u/L
CREATININE [3]: 0.13 mg/dL
GLUCOSE [3]: 131.67 mg/dL
LACTATE DEHYDROGENASE [3]: 142.67 u/L
LIPASE [3]: 11.67 u/L
PHOSPHORUS [3]: 10.57 mg/dL
POTASSIUM [3]: 5.73 MEQ/L
SODIUM [3]: 145.3 MEQ/L
TOTAL BILIRUBIN [3]: 0.2 mg/dL
TOTAL PROTEIN [3]: 6.17 G/DL
URIC ACID [3]: 0.53 mg/dL
